Assay results as given in PubChem BioAssay (NCI).
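At the GI50, growth is halved. Definition used: TGI = concentration required for complete inhibition of growth.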

Key:
Experiment in all cases: growth of human tumour cells (NCI), 384-well format
ACHN renal = tested on: ACHN renal
RPMI-8226 leukemia = tested on: RPMI-8226 leukemia
NCI-H522 lung = tested on: NCI-H522 lung
SK-MEL-28 melanoma = tested on: SK-MEL-28 melanoma
CAKI-1 renal = tested on: CAKI-1 renal
NCI-H23 lung = tested on: NCI-H23 lung
LOX IMVI melanoma = tested on: LOX IMVI melanoma
SNB-19 CNS = tested on: SNB-19 CNS
HOP-62 NSCLC = tested on: HOP-62 NSCLC
MALME-3M melanoma = tested on: MALME-3M melanoma
K-562 leukemia = tested on: K-562 leukemia
EKVX NSCLC = tested on: EKVX NSCLC
NCI/ADR-RES ovarian = tested on: NCI/ADR-RES ovarian
HCT-116 colon = tested on: HCT-116 colon
SNB-75 CNS = tested on: SNB-75 CNS
A549 NSCLC = tested on: A549 NSCLC
NCI-H226 lung = tested on: NCI-H226 lung
MDA-MB-435 melanoma = tested on: MDA-MB-435 melanoma
SK-MEL-2 melanoma = tested on: SK-MEL-2 melanoma
A498 renal = tested on: A498 renal
M14 melanoma = tested on: M14 melanoma
CCRF-CEM leukemia = tested on: CCRF-CEM leukemia
HS 578T breast = tested on: HS 578T breast
SF-539 CNS = tested on: SF-539 CNS
SF-295 CNS = tested on: SF-295 CNS
MDA-MB-231 breast = tested on: MDA-MB-231 breast
SF-268 CNS = tested on: SF-268 CNS
COLO 205 colon = tested on: COLO 205 colon
OVCAR-4 ovarian = tested on: OVCAR-4 ovarian
T-47D breast = tested on: T-47D breast
HL-60(TB) leukemia = tested on: HL-60(TB) leukemia
SR leukemia = tested on: SR leukemia
IGROV1 ovarian = tested on: IGROV1 ovarian
RXF 393 renal = tested on: RXF 393 renal
SK-MEL-5 melanoma = tested on: SK-MEL-5 melanoma
KM12 colon = tested on: KM12 colon
TK-10 renal = tested on: TK-10 renal
HCT-15 colon = tested on: HCT-15 colon
UACC-257 melanoma = tested on: UACC-257 melanoma
MCF7 breast = tested on: MCF7 breast
OVCAR-3 ovarian = tested on: OVCAR-3 ovarian
PC-3 prostate = tested on: PC-3 prostate
BT-549 breast = tested on: BT-549 breast
UACC-62 melanoma = tested on: UACC-62 melanoma
SN12C renal = tested on: SN12C renal
DU-145 prostate = tested on: DU-145 prostate
HT29 colon = tested on: HT29 colon
U251 glioblastoma = tested on: U251 glioblastoma
NCI-H460 NSCLC = tested on: NCI-H460 NSCLC
SK-OV-3 ovarian = tested on: SK-OV-3 ovarian
NCI-H322M lung = tested on: NCI-H322M lung
MDA-MB-468 breast = tested on: MDA-MB-468 breast
MOLT-4 leukemia = tested on: MOLT-4 leukemia
SW-620 colon = tested on: SW-620 colon
OVCAR-8 ovarian = tested on: OVCAR-8 ovarian
OVCAR-5 ovarian = tested on: OVCAR-5 ovarian
HCC-2998 colon = tested on: HCC-2998 colon
HOP-92 NSCLC = tested on: HOP-92 NSCLC

## Cc1noc2c1-c1ccccc1C(c1ccc(Cl)cc1)=N[C@H]2CC(N)=O
ACHN renal
  GI50: 11500 nM
  TGI: > 100000 nM
RPMI-8226 leukemia
  GI50: 298 nM
  TGI: 12500 nM
NCI-H522 lung
  GI50: 40 nM
  TGI: 455 nM
SK-MEL-28 melanoma
  GI50: 21400 nM
  TGI: > 100000 nM
CAKI-1 renal
  GI50: 227 nM
  TGI: 54300 nM
NCI-H23 lung
  GI50: 1140 nM
  TGI: 26800 nM
LOX IMVI melanoma
  GI50: 473 nM
  TGI: 18100 nM
SNB-19 CNS
  GI50: 4910 nM
  TGI: > 100000 nM
HOP-62 NSCLC
  GI50: 400 nM
  TGI: 34100 nM
MALME-3M melanoma
  GI50: 16400 nM
  TGI: 61400 nM
K-562 leukemia
  GI50: 697 nM
  TGI: 28000 nM
EKVX NSCLC
  GI50: 36200 nM
  TGI: > 100000 nM
NCI/ADR-RES ovarian
  GI50: 639 nM
  TGI: 20400 nM
HCT-116 colon
  GI50: 13500 nM
  TGI: 54700 nM
SNB-75 CNS
  GI50: 15700 nM
  TGI: > 100000 nM
A549 NSCLC
  GI50: 10300 nM
  TGI: > 100000 nM
NCI-H226 lung
  GI50: 12200 nM
  TGI: 44000 nM
MDA-MB-435 melanoma
  GI50: 6550 nM
  TGI: 43500 nM
SK-MEL-2 melanoma
  GI50: 34200 nM
  TGI: 53200 nM
A498 renal
  GI50: 1410 nM
  TGI: 94400 nM
M14 melanoma
  GI50: 13600 nM
  TGI: > 100000 nM
CCRF-CEM leukemia
  GI50: 629 nM
  TGI: 22900 nM
HS 578T breast
  GI50: 292 nM
  TGI: 28300 nM
SF-539 CNS
  GI50: 13000 nM
  TGI: > 100000 nM
SF-295 CNS
  GI50: 18800 nM
  TGI: > 100000 nM
MDA-MB-231 breast
  GI50: 612 nM
  TGI: 94400 nM
SF-268 CNS
  GI50: 18100 nM
  TGI: 67700 nM
COLO 205 colon
  GI50: 780 nM
  TGI: 29000 nM
OVCAR-4 ovarian
  GI50: 367 nM
  TGI: 3290 nM
T-47D breast
  GI50: 6480 nM
  TGI: 82000 nM
HL-60(TB) leukemia
  GI50: 102 nM
  TGI: 229 nM
SR leukemia
  GI50: 47.8 nM
  TGI: 1430 nM
IGROV1 ovarian
  GI50: 564 nM
  TGI: 30100 nM
RXF 393 renal
  GI50: 11600 nM
  TGI: 34200 nM
SK-MEL-5 melanoma
  GI50: 1030 nM
  TGI: 21300 nM
KM12 colon
  GI50: 6930 nM
  TGI: 44300 nM
TK-10 renal
  GI50: 504 nM
  TGI: 34300 nM
HCT-15 colon
  GI50: 442 nM
  TGI: 19500 nM
UACC-257 melanoma
  GI50: 16400 nM
  TGI: > 100000 nM
MCF7 breast
  GI50: 312 nM
  TGI: 17000 nM
OVCAR-3 ovarian
  GI50: 812 nM
  TGI: 29800 nM
PC-3 prostate
  GI50: 723 nM
  TGI: > 100000 nM
BT-549 breast
  GI50: 292 nM
  TGI: 18700 nM
UACC-62 melanoma
  GI50: 268 nM
  TGI: 42100 nM
SN12C renal
  GI50: 24200 nM
  TGI: > 100000 nM
DU-145 prostate
  GI50: 23600 nM
  TGI: > 100000 nM
HT29 colon
  GI50: 508 nM
  TGI: 59200 nM
U251 glioblastoma
  GI50: 10200 nM
  TGI: > 100000 nM
NCI-H460 NSCLC
  GI50: 19000 nM
  TGI: > 100000 nM
SK-OV-3 ovarian
  GI50: 491 nM
  TGI: 38800 nM
NCI-H322M lung
  GI50: 3010 nM
  TGI: > 100000 nM
MDA-MB-468 breast
  GI50: 685 nM
  TGI: 23000 nM
MOLT-4 leukemia
  GI50: 549 nM
  TGI: 15800 nM
SW-620 colon
  GI50: 21800 nM
  TGI: 71700 nM

## CNCCn1c(=O)c2cc(OC)c(OC)cc2c2cnc3cc4c(cc3c21)OCO4
ACHN renal
  GI50: < 10 nM
  TGI: < 10 nM
RPMI-8226 leukemia
  GI50: < 10 nM
  TGI: < 10 nM
NCI-H522 lung
  GI50: < 10 nM
  TGI: 23.3 nM
SK-MEL-28 melanoma
  GI50: 28.8 nM
  TGI: 1830 nM
CAKI-1 renal
  GI50: < 10 nM
  TGI: 1490 nM
NCI-H23 lung
  GI50: < 10 nM
  TGI: 16.2 nM
LOX IMVI melanoma
  GI50: < 10 nM
  TGI: 12 nM
SNB-19 CNS
  GI50: < 10 nM
  TGI: 14.1 nM
HOP-62 NSCLC
  GI50: < 10 nM
  TGI: < 10 nM
MALME-3M melanoma
  GI50: 25.5 nM
  TGI: 1810 nM
EKVX NSCLC
  GI50: 21.9 nM
  TGI: 51.6 nM
NCI/ADR-RES ovarian
  GI50: < 10 nM
  TGI: 42.9 nM
HCT-116 colon
  GI50: < 10 nM
  TGI: 19.2 nM
SNB-75 CNS
  GI50: < 10 nM
  TGI: 23.3 nM
A549 NSCLC
  GI50: < 10 nM
  TGI: 1080 nM
NCI-H226 lung
  GI50: 12.7 nM
  TGI: 756 nM
OVCAR-8 ovarian
  GI50: < 10 nM
  TGI: 33.8 nM
A498 renal
  GI50: < 10 nM
  TGI: 20.9 nM
M14 melanoma
  GI50: < 10 nM
  TGI: < 10 nM
HS 578T breast
  GI50: 33.5 nM
  TGI: 1810 nM
SF-539 CNS
  GI50: < 10 nM
  TGI: 12.3 nM
SF-295 CNS
  GI50: < 10 nM
  TGI: < 10 nM
MDA-MB-231 breast
  GI50: 35.8 nM
  TGI: 139 nM
SF-268 CNS
  GI50: < 10 nM
  TGI: 17.2 nM
COLO 205 colon
  GI50: < 10 nM
  TGI: 1330 nM
OVCAR-4 ovarian
  GI50: 21.7 nM
  TGI: 42 nM
T-47D breast
  GI50: < 10 nM
  TGI: 242 nM
HL-60(TB) leukemia
  GI50: < 10 nM
  TGI: < 10 nM
SR leukemia
  GI50: < 10 nM
  TGI: < 10 nM
IGROV1 ovarian
  GI50: 15.8 nM
  TGI: 66.7 nM
OVCAR-5 ovarian
  GI50: 10.6 nM
  TGI: 29.1 nM
RXF 393 renal
  GI50: 13.7 nM
  TGI: 43.1 nM
SK-MEL-5 melanoma
  GI50: < 10 nM
  TGI: 14.8 nM
KM12 colon
  GI50: 10.8 nM
  TGI: 43.2 nM
TK-10 renal
  GI50: 13.8 nM
  TGI: 58.4 nM
HCT-15 colon
  GI50: < 10 nM
  TGI: 25.8 nM
HCC-2998 colon
  GI50: 12.4 nM
  TGI: 32.4 nM
UACC-257 melanoma
  GI50: 22.8 nM
  TGI: 1310 nM
MCF7 breast
  GI50: < 10 nM
  TGI: 158 nM
OVCAR-3 ovarian
  GI50: < 10 nM
  TGI: 14.1 nM
PC-3 prostate
  GI50: 22.1 nM
  TGI: 1340 nM
BT-549 breast
  GI50: < 10 nM
  TGI: 20.4 nM
SN12C renal
  GI50: < 10 nM
  TGI: < 10 nM
HOP-92 NSCLC
  GI50: 14.1 nM
  TGI: 1330 nM
DU-145 prostate
  GI50: < 10 nM
  TGI: < 10 nM
HT29 colon
  GI50: < 10 nM
  TGI: 20.5 nM
U251 glioblastoma
  GI50: < 10 nM
  TGI: 12.3 nM
NCI-H460 NSCLC
  GI50: < 10 nM
  TGI: < 10 nM
SK-OV-3 ovarian
  GI50: < 10 nM
  TGI: 17.7 nM
NCI-H322M lung
  GI50: 15.6 nM
  TGI: 41.1 nM
MDA-MB-468 breast
  GI50: < 10 nM
  TGI: < 10 nM
MOLT-4 leukemia
  GI50: < 10 nM
  TGI: < 10 nM
